# Reference: publication PMC7251097, “Aspartate/asparagine-β-hydroxylase: a high-throughput mass spectrometric assay for discovery of small molecule inhibitors” (Scientific Reports, 2020)
# Structures can show the parent of a compound that is named as a salt. Where two headings read alike, the source gives them in different places.
# Biological target: T1, His6-AspH315–758 (human aspartate/asparagine-β-hydroxylase, AspH) (Homo sapiens, UniProt Q12797)
# T1 construct: N-Terminally His6-tagged human AspH315–758 (His6-AspH315–758) was produced in E. coli BL21 (DE3) cells; made in house; host or cells: E. coli BL21 (DE3), pET-28a(+) vector
# T1 sequence (Q12797 315-758): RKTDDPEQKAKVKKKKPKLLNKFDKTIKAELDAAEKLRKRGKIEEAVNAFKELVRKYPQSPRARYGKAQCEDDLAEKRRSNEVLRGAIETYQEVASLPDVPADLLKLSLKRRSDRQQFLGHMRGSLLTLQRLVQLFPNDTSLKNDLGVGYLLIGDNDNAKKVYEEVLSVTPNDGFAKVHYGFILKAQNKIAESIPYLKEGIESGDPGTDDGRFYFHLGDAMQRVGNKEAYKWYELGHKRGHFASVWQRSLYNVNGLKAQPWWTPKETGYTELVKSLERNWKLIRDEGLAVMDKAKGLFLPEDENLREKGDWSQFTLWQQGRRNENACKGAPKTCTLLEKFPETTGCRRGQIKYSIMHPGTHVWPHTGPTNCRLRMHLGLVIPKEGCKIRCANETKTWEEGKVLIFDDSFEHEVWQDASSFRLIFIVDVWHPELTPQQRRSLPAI
# Assay: SPE-MS AspH inhibition assay (LOPAC screen at fixed 20 μM and IC50 dose-response), hydroxylation of cyclic peptide hFX-CP101–119
# Type: biochemical
# Conditions: for IC50: 50 nM His6-AspH315–758, 1.0 μM hFX-CP101–119, 3 μM 2OG, 2 μM Fe(II), 50 mM HEPES pH 7.5, 20 °C, mean ± SD, n = 2 (2,4-PDCA n = 10), read-out: IC50; for Inhibition at 20 µM [%]: AspH activity, fixed compound concentration 20 μM, initial LOPAC screen, 0.5%v/v DMSO
# [1] = LOPAC Plate 4, compound at 20 uM
# [2] = LOPAC Plate 4, compound at 20 uM, substrate conversion
# [3] = LOPAC compound at 20uM, conversion of substrate peptide
# [4] = LOPAC compound at fixed 20 uM, plate 1, normalised to DMSO and 2,4-PDCA controls
# [5] = LOPAC compound at fixed 20 uM, substrate conversion, plate 1
# [6] = LOPAC compound at 20uM, plate 2, conversion of substrate peptide
# [7] = LOPAC compound at 20uM, plate 2, normalised to DMSO and 2,4-PDCA controls, read-out: Plate 2 (% inhibition)
# [8] = LOPAC Plate 4, compound at 20 uM, read-out: % inhibition
smiles,measurement,setting,value
"CN=c1nc(-c2ccccc2)n(-c2ccccc2)s1 [SCH-202676, reference compound]",IC50,listed as C00007,510 ± 80 nM
same,IC50,,~500 nM
same,Inhibition at 20 µM [%],,100.6%
same,% inhibition,[1],100.56%
same,% conversion,[2],2.15%
"CCN(CC)CCOC(=O)c1cc(Cl)c(N)cc1OC.Cl [SDZ-205,557 hydrochloride]",% inhibition,[1],-2.39%
same,% conversion,[2],37.29%
Cc1ccc(O)c(N=Nc2ccccc2)n1 [SIB 1757],% conversion,[2],30.83%
Cc1cccc(/C=C/c2ccccc2)n1 [SIB 1893],% conversion,[2],34.05%
"Br.Cc1cccc(C2CN(C)CCc3c2cc(O)c(O)c3Cl)c1 (centres unmarked) [SKF 83959 hydrobromide, reference compound]",Inhibition at 20 µM [%],,95.1%
same,% inhibition,[1],95.13%
same,% conversion,[2],4.00%
CN1CCc2cccc(Cl)c2CC1 [SKF 86466],% conversion,,40.52%
same,inhibition at 20 µM,,-11.9%
O=C(O)/C=C\C(=O)O.O=C(O)/C=C\C(=O)O.c1cc(CN2CCCCC2)cc(OCCCNc2nc3ccccc3s2)c1 [SKF 95282 dimaleate],% conversion,,24.14%
CCCC(C(=O)OCCN(CC)CC)(c1ccccc1)c1ccccc1.Cl [SKF-525A hydrochloride],Plate 3 (% conversion),[3],49.23%
Br.CN1Cc2sccc2C(c2ccc(O)c(O)c2)C1 (centres unmarked) [SKF-89145 hydrobromide],Plate 1 (% inhibition),[4],78.75%
same,Plate 1 (% conversion),[5],9.43%
C=CCNc1ncnc2ccc(Br)cc12 [SMER28],% conversion,[2],30.76%
C=CCN1C[C@H](C)N([C@H](c2ccc(C(=O)N(CC)CC)cc2)c2cccc(OC)c2)C[C@H]1C [SNC80],% conversion,,40.53%
same,% inhibition,20 µM,-11.89%
Oc1c2ccccc2c2c3c(cccc13)N=N2 [SP600125],Plate 2 (% conversion),[6],37.53%
same,inhibition at 20 µM,[7],-4.71%
Nc1ncnc2c1ncn2C1CCCO1 (centres unmarked) [SQ 22536],% conversion,,37.42%
CCc1ccccc1OC[C@@H](O)CN[C@H]1CCCc2ccccc21.O=C(O)C(=O)O [SR 59230A oxalate],% conversion,,13.86%
same,% inhibition,20 µM,66.24%
COc1cccc(OC)c1-c1cc(C(=O)NC2(C(=O)O)C3CC4CC(C3)CC2C4)nn1-c1ccc(C(=O)N(C)CCCN(C)C)cc1C(C)C (centres unmarked) [SR 142948A],Plate 2 (% conversion),[6],44.18%
same,Plate 2 (% inhibition),"LOPAC compound at 20uM, plate 2, normalised to DMSO and 2,4-PDCA controls",-24.57%
Br.COc1ccc(-c2ccc(=N)n(CCCC(=O)O)n2)cc1 [SR-95531],% conversion,,38.69%
same,% inhibition,20 µM,-6.50%
Cc1cc(C)c(/C=C2\C(=O)Nc3ccc(Cl)cc32)[nH]1 [SU5614],Plate 5 (% inhibition),"plate 5 (Pfitzer), test compounds at fixed 20 μM",8.69%
CN(C)c1ccc(/C=C2\C(=O)Nc3ccccc32)cc1 [SU 4312],% inhibition,[1],2.06%
same,% conversion,[2],35.77%
CN(C)S(=O)(=O)c1ccc2c(c1)/C(=C/c1cc3c([nH]1)CCCC3)C(=O)N2 [SU 6656],% conversion,[2],31.14%
same,inhibition at 20 µM,[8],15.6%
CCCCCCCCCC[Si](C)(C)CCC(=O)NC(Cc1ccc(C)cc1)c1ccccc1 (centres unmarked) [Sandoz 58-035],Plate 1 (% conversion),,37.15%
same,Plate 1 (% inhibition),,-3.81%
C[n+]1cc2c3c(ccc2c2ccc4cc5c(cc4c21)OCO5)OCO3 [Sanguinarine chloride],% conversion,,10.82%
Cl.NNC(N)=O [Semicarbazide hydrochloride],% conversion,,22.57%
C[C@H](O)C(=O)C1=Nc2c(nc(N)[nH]c2=O)NC1 [Sepiapterin],% conversion,[2],40.54%
same,inhibition at 20 µM,[8],-11.9%
NCCc1c[nH]c2ccc(O)cc12 [Serotonin hydrochloride],Plate 2 (% conversion),,31.81%
same,inhibition at 20 µM,[7],12.4%
CCCc1nn(C)c2c(=O)[nH]c(-c3cc(S(=O)(=O)N4CCN(C)CC4)ccc3OCC)nc12.O=C(O)CC(O)(CC(=O)O)C(=O)O [Sildenafil citrate salt],Plate 1 (% inhibition),[4],83.33%
same,Plate 1 (% conversion),[5],7.89%
CC(C)(C)C(=O)Oc1ccc(S(=O)(=O)Nc2ccccc2C(=O)NCC(=O)[O-])cc1.[Na+] [Sivelestat sodium salt hydrate],Plate 3 (% conversion),[3],36.62%
CC(C)COC(=O)OCN1C(=O)CN(CCN2CC(=O)N(COC(=O)OCC(C)C)C(=O)C2)CC1=O [Sobuzoxane],% conversion,,68.13%
